Assay results taken from patent US20170246241A1, “Methods for the Selective Treatment of Tumors by Calcium-Mediated Induction of Apoptosis” (priority 2003, published 2017).
Entries after “also recorded” stand apart in the source; their conditions may differ.

Assays:
MEL-STR cells [1] = assay: Annexin V-FITC apoptosis detection by flow cytometry (apoptotic+dead cells); assay type: cell-based, human; conditions: for fold more potent at inducing apoptosis in STR compared to STVP cells: 5 hour exposure (FIGS. 13, 14); for greater sensitivity / potency advantage, malignant versus non-malignant cells, induction of apoptosis: 5 hrs exposure (FIG. 3, FIG. 4)
Experimental: (§1) FIG. 2. […] Malignant (MEL-STR) and non-malignant (MEL-STVP) cells used in these experiments were derived originally from normal human foreskin melanocytes obtained from the Weisberg lab. These original surgical samples were genetically modified to grow continuously in vitro and are non-tumor-forming in a nude mouse model. These same cells were genetically modified further to generate the tumor-forming cell line and were propagated.
Apoptotic+dead cells were assayed in this experiment and those that follow below on a Becton-Dickenson flow cytometer using an Annexin V-FITC Apoptosis Detection Kit as described by the manufacturer.
Drug exposure time was 5 hrs. Viable and live cells were measured by FACS and by Coulter counting, respectively. […] Panels A & B: solid circles and lines, STR cells; open circles and broken lines, STVP cells; Panel B, inverse logit/log plot of the data from Panel A. Solid gray circles in Panel B (extrapolated minimum values on abscissa) were used to plot the maximum values shown in Panel A.

MEL-STR cells [2] = assay: Cell morphology (FACS light scatter, microscopic examination); assay type: cell-based, human
Excerpt: Calmodulin is known to be required for traverse of late G1, G2, and specific periods during mitosis and coincides with periods of elevated […] levels.
The involvement of a form of PKC in the enzyme tetrad that is involved in Ca^2+-dependent, cell cycle phase transitions is given in FIG. 4. […] Four different means for assaying the effect of these two chemicals are shown.

certain cancers = conditions: in vivo; cited from earlier work
MEL-STVP cells = assay: Annexin V-FITC apoptosis detection by flow cytometry (apoptotic+dead cells); assay type: cell-based, human
Excerpt: as §1, with “propagated. Thus, this represents an ideal pair of highly similar cells by which drug specificity between normal and malignant cells can be assessed.” for “propagated.”
Transformed MEL-STR cells were incubated over a period of 24 hrs in the presence of a previously determined ineffective concentration (10 μm) of the CAM antagonist W-7 or the drug vehicle DMSO (1%) as controls and a concentration of 60 μm W-7 as illustrated. Apoptotic+dead cells were assayed in this experiment and those that follow below on a Becton-Dickenson flow cytometer using an Annexin V-FITC Apoptosis Detection Kit as described by the manufacturer.
Drug exposure time was 5 hrs. Viable and live cells were measured by FACS and by Coulter counting, respectively. Dose-dependent decreases in viable cells were inversely proportional to the number of Annexin+Propidium Iodide positive staining cells (data not shown) in these and the following experiments. […]

STR cells = conditions: PP2B-AIP alone, wide concentration range, 24 hours
Experimental: Panel B, cell density measured by Coulter counting; Panel C, morphological changes measured by changes in forward light scatter as measured by FACS; Panel D, percentage of spherical cells was determined on live cell populations by counting approximately 500 cells in a representative field using an inverted phase contrast microscope.
Closed circles, solid lines, PP2B-AIP only; open circles, dashed lines, PP2B+C6C (15 uM). Cell density was quantified by Coulter counting which measures only cells with Panel A, STR cells; Panel B, STVP cells. Closed circles, solid lines, PP2B-AIP only; open circles, dashed lines, PP2B+C6C (15 uM). Cell density was quantified by Coulter counting which measures only cells with ionically intact plasma membranes (presumed live cells). Drug exposure time was 24 hours. Cell density values are expressed as a percentage of maximum for no drug or C6C only controls. Solid black lines in Panels A & B and dashed line in Panel B represent the average of all values across the PP2B-AIP concentration range ionically intact plasma membranes (presumed live cells). Drug exposure time was 24 hours. Cell density values are expressed as a percentage of maximum for no drug or C6C only controls. Solid black lines in Panels A & B and dashed line in Panel B represent the average of all values across the PP2B-AIP concentration range.

STVP cells = assay: Cell density / growth inhibition by Coulter counting; assay type: cell-based, human; conditions: PP2B-AIP alone, wide concentration range, 24 hours
Experimental: Closed circles, solid lines, PP2B-AIP only; open circles, dashed lines, PP2B+C6C (15 uM). Cell density was quantified by Coulter counting which measures only cells with Panel A, STR cells; Panel B, STVP cells. Closed circles, solid lines, PP2B-AIP only; open circles, dashed lines, PP2B+C6C (15 uM). Cell density was quantified by Coulter counting which measures only cells with ionically intact plasma membranes (presumed live cells). Drug exposure time was 24 hours. Cell density values are expressed as a percentage of maximum for no drug or C6C only controls. Solid black lines in Panels A & B and dashed line in Panel B represent the average of all values across the PP2B-AIP concentration range. The ability of PKC agonists on apoptosis induction is potentiated by antagonists of Calmodulin-dependent protein phosphatase (a.k.a. Calcineurin or PP2B) and these effects occur at lower drug concentrations in transformed cells than in untransformed cells. […]

MEL-STR cells [3] = assay: Annexin V-FITC apoptosis detection by flow cytometry (apoptotic+dead cells); assay type: cell-based, human; conditions: 60 μm W-7, time course over 24 hrs
[4] = PP2B-AIP alone, over the concentration range tested

## Oc1ccc(Nc2nc(-c3ccc(Cl)cc3)cs2)cc1 [SKi, 4-[[4-(4-Chlorophenyl)-1,3-thiazol-2-yl]amino]phenol]
MEL-STR cells [1]; SKi combined with W-7
  potentiation of induction of apoptosis in combination with W-7: synergy

## CCCCCCCCCCCCCC(=O)O[C@@H]1[C@@H](C)[C@@]2(O)[C@@H](C=C(CO)C[C@]3(O)C(=O)C(C)=C[C@@H]23)[C@@H]2C(C)(C)[C@]12OC(C)=O [PMA, Phorbol-12-Myristate-13-Acetate]
MEL-STR cells [1]; PMA combined with submaximal W-7
  potentiation of induction of apoptosis in combination with W-7 (Annexin assay): shows potentiation; also recorded: synergy
MEL-STR cells [2]; PMA combined with W-7, light scatter by FACS and microscopic examination
  potentiation of cell shape change in combination with W-7: Potentiation is also confirmed; also recorded: synergistic drug effects

## C=C1/C(=C\C=C2/CCC[C@]3(C)[C@@H]([C@H](C)CCCC(C)(C)O)CC[C@@H]23)C[C@@H](O)C[C@@H]1O [Calcitriol]
Certain cancers
  reduction of the incidence of certain cancers: 17-20%

## Ac-RRRRRRRRRRRGGGRMAPPRRDAMPSDA-NH2 [PP2B-AIP]
MEL-STVP cells; [4]
  induction of apoptosis, drug alone: no visible induction of apoptosis
MEL-STVP cells; combined with C6C
  potentiation of apoptosis in combination with C6C: not in untransformed MEL-STVP cells
STR cells
  effect on growth, drug alone: no discernible effect
MEL-STR cells [1]; [4]
  induction of apoptosis, drug alone: no visible induction of apoptosis
MEL-STR cells [1]; PP2B-AIP with C6C, 5 hr. exposure
  maximum of cells killed: ≤ 50%
MEL-STR cells [1]; combined with C6C
  potentiation of apoptosis in combination with C6C: potentiation is seen only in the transformed MEL-STR cell line
STVP cells
  effect on growth, drug alone: no discernible effect

## CCCCCCCCCCCCC/C=C/[C@@H](O)[C@H](CO)NC(=O)CCCCC [C6C, N-Hexanoyl-D-erythro-Sphingosine]
MEL-STR cells [1]
  fold more potent at inducing apoptosis in STR compared to STVP cells: ca. 6 fold
MEL-STR cells [1]; C6C combined with W-7, 5 hr exposure
  potentiation of induction of apoptosis in combination with W-7: potentiated
MEL-STR cells [1]; MEL-STR vs MEL-STVP
  greater sensitivity / potency advantage, malignant versus non-malignant cells, induction of apoptosis: ~10 fold

## Cl.NCCCCCCNS(=O)(=O)c1cccc2c(Cl)cccc12 [W-7, N-(6-aminohexyl)-5-chloro-1-naphthalenesulfonamide hydrochloride]
MEL-STR cells [1]; 10 μm, previously determined
  induction of apoptosis at 10 μm: ineffective
MEL-STR cells [1]
  fold more potent at inducing apoptosis in STR compared to STVP cells: ca. 5 fold
MEL-STR cells [1]; MEL-STR vs MEL-STVP, 5 hr. exposure, dose response (FIG. 3)
  sensitivity to induction of apoptosis, malignant versus non-malignant cells: more than 10 times
MEL-STR cells [1]; MEL-STR vs MEL-STVP
  greater sensitivity / potency advantage, malignant versus non-malignant cells, induction of apoptosis: 10 fold
MEL-STR cells [2]; 60 μm W-7, microscopically or by FACS light scatter
  time at which morphological rounding of cells can be observed: 1 hr
MEL-STR cells [3]
  population scoring positively for apoptosis: > 90%
  time at which induction of apoptosis can be seen: 3 h
